In patent US12172990B2 (Constellation Pharmaceuticals, Inc., priority 2018, dated 2024):

Assays:
[1] = target: full length human TREX1 (Homo sapiens (Human), UniProt Q9NSU2); assay: TREX1 Biochemical Assay (fluorescence assay measuring degradation of dsDNA substrate); details: 150 pM TREX1, 60 nM dsDNA substrate, 25 minutes at room temperature
Procedure, shortened: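 His-Tev-tagged full-length human TREX1 expressed in E. coli, 150 pM final, with 60 nM TEX615/quencher-labelled 9-mer dsDNA in Tris pH 7.4, NaCl, DTT, BSA, Tween-20, MgCl2 and 1.0% DMSO; 25 min at room temperature, EDTA-quenched. Fluorescence 615 nm (excitation 570 nm); 10-point IC50 by four-parameter fit against pre-quenched and no-inhibitor controls.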

[2] = target: human TREX2 (residues M44-A279) (Homo sapiens (Human), UniProt Q9BQ50); assay: TREX2 Biochemical Assay (fluorescence assay measuring degradation of dsDNA substrate); details: 2.5 nM TREX2, 60 nM dsDNA substrate, 25 minutes at room temperature
Sequence of human TREX2 (residues M44-A279) (Q9BQ50 whole entry, the tested form may be a part): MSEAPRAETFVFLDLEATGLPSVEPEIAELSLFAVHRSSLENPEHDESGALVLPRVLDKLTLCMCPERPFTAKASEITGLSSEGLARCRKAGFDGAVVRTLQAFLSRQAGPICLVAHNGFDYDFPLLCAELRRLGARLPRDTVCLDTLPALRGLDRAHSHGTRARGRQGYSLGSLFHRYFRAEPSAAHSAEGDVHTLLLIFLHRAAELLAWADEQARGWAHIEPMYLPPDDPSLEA
Procedure, shortened: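 Final conditions: 2.5 nM His-Tev-tagged TREX2 (E. coli-expressed), 60 nM fluorophore/quencher-labelled dsDNA, 50 mM Tris pH 7.4, 150 mM NaCl, 100 mM MgCl2, 1% DMSO; 10-point compound dose-response. Incubated 25 min at room temperature, then EDTA-quenched; fluorescence read at ex 570/em 615 nm. IC50 from four-parameter fit against pre-quenched and no-inhibitor controls.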

Sequence of full length human TREX1 (Q9NSU2 whole entry): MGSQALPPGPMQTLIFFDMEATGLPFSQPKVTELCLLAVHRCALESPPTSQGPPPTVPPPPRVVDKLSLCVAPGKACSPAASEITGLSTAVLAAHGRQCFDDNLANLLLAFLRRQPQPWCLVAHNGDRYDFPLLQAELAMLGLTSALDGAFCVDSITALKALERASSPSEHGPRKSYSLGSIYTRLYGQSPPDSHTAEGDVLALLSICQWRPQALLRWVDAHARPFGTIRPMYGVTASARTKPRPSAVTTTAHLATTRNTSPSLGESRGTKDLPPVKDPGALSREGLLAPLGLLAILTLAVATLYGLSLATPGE

IC50 [1] | IC50 [2] | Structure (SMILES)
< 0.1 µM | 1 to 10 µM | Cn1c(N2CCC[C@@H]2c2ccccc2Cl)nc(C(=O)Nc2cnoc2)c(O)c1=O [Example 124, (R)-2-(2-(2-chlorophenyl)pyrrolidin-1-yl)-5-hydroxy-N-(isoxazol-4-yl)-1-methyl-6-oxo-1,6-dihydropyrimidine-4-carboxamide]
< 0.1 µM | < 1 µM | Cn1c(N2CCN(c3ccccn3)C[C@@H]2c2ccccc2Cl)nc(C(=O)Nc2cnoc2)c(O)c1=O [Example 125, (S)-2-(2-(2-chlorophenyl)-4-(pyridin-2-yl)piperazin-1-yl)-5-hydroxy-N-(isoxazol-4-yl)-1-methyl-6-oxo-1,6-dihydropyrimidine-4-carboxamide]
< 0.1 µM | < 1 µM | CC(=O)N1CCN(c2nc(C(=O)Nc3cnoc3)c(O)c(=O)n2C)[C@H](c2ccccc2Cl)C1 [Example 128, (R)-2-(4-acetyl-2-(2-chlorophenyl)piperazin-1-yl)-5-hydroxy-N-(isoxazol-4-yl)-1-methyl-6-oxo-1,6-dihydropyrimidine-4-carboxamide]

More lines, now with the values behind:

Structure (SMILES) | IC50 [1] | IC50 [2]
Cn1c(C2CCCN(CCc3ccccc3)C2)nc(C(=O)Nc2cnoc2)c(O)c1=O (stereo not drawn) [Example 129, 5-hydroxy-N-(isoxazol-4-yl)-1-methyl-6-oxo-2-(1-phenethylpiperidin-3-yl)-1,6-dihydropyrimidine-4-carboxamide] | > 10 µM | > 100 µM
Cn1c(C2(C)CCCN(C(=O)c3ccc(Cl)c(Cl)c3)C2)nc(C(=O)Nc2cnoc2)c(O)c1=O (stereo not drawn) [Example 130, 2-(1-(3,4-dichlorobenzoyl)-3-methylpiperidin-3-yl)-5-hydroxy-N-(isoxazol-4-yl)-1-methyl-6-oxo-1,6-dihydropyrimidine-4-carboxamide] | 0.1 to 1 µM | 1 to 10 µM
Cn1c([C@@H]2CCCN(C(=O)c3ccc(Cl)c(Cl)c3)C2)nc(C(=O)Nc2cnoc2)c(O)c1=O [Example 131, (R)-2-(1-(3,4-dichlorobenzoyl)piperidin-3-yl)-5-hydroxy-N-(isoxazol-4-yl)-1-methyl-6-oxo-1,6-dihydropyrimidine-4-carboxamide] | < 0.1 µM | < 1 µM
